Reference: PubChem BioAssay (NCI)
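Each compound was tested at five concentrations against cells in 96-well plates for 48 hours. GI50 marks 50% less growth. TGI denotes the concentration required for complete inhibition of growth.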

Experiments:
Assay in all cases: NCI anticancer screen, dose series, 48 h
HCT-116 colon = system: HCT-116 colon
UACC-257 melanoma = system: UACC-257 melanoma
ACHN renal = system: ACHN renal
SF-295 CNS = system: SF-295 CNS
MDA-MB-435 = system: MDA-MB-435
SF-268 CNS = system: SF-268 CNS
OVCAR-4 ovarian = system: OVCAR-4 ovarian
LOX IMVI melanoma = system: LOX IMVI melanoma
MOLT-4 leukemia = system: MOLT-4 leukemia
NCI-H460 lung = system: NCI-H460 lung
SN12C renal = system: SN12C renal
DU-145 prostate = system: DU-145 prostate
TK-10 renal = system: TK-10 renal
COLO 205 colon = system: COLO 205 colon
MALME-3M melanoma = system: MALME-3M melanoma
HOP-62 NSCLC = system: HOP-62 NSCLC
SK-OV-3 ovarian = system: SK-OV-3 ovarian
NCI-H226 lung = system: NCI-H226 lung
HCT-15 colon = system: HCT-15 colon
MDA-MB-231 breast = system: MDA-MB-231 breast
CCRF-CEM leukemia = system: CCRF-CEM leukemia
KM12 colon = system: KM12 colon
SF-539 CNS = system: SF-539 CNS
OVCAR-8 ovarian = system: OVCAR-8 ovarian
CAKI-1 renal = system: CAKI-1 renal
EKVX NSCLC = system: EKVX NSCLC
HCC-2998 colon = system: HCC-2998 colon
A498 renal = system: A498 renal
SK-MEL-2 melanoma = system: SK-MEL-2 melanoma
M14 melanoma = system: M14 melanoma
UO-31 renal = system: UO-31 renal
IGROV1 ovarian = system: IGROV1 ovarian
MCF7 breast = system: MCF7 breast
HL-60(TB) leukemia = system: HL-60(TB) leukemia
SR leukemia = system: SR leukemia
RXF 393 renal = system: RXF 393 renal
HT29 colon = system: HT29 colon
OVCAR-5 ovarian = system: OVCAR-5 ovarian
NCI-H23 lung = system: NCI-H23 lung
SNB-75 CNS = system: SNB-75 CNS
NCI/ADR-RES ovarian = system: NCI/ADR-RES ovarian
RPMI-8226 leukemia = system: RPMI-8226 leukemia
UACC-62 melanoma = system: UACC-62 melanoma
K-562 leukemia = system: K-562 leukemia
U251 CNS = system: U251 CNS
SK-MEL-5 melanoma = system: SK-MEL-5 melanoma
786-0 renal = system: 786-0 renal
OVCAR-3 ovarian = system: OVCAR-3 ovarian
T-47D breast = system: T-47D breast
PC-3 prostate = system: PC-3 prostate
HS 578T breast = system: HS 578T breast
BT-549 breast = system: BT-549 breast
SK-MEL-28 melanoma = system: SK-MEL-28 melanoma
SW-620 colon = system: SW-620 colon
SNB-19 CNS = system: SNB-19 CNS
A549 NSCLC = system: A549 NSCLC
NCI-H522 lung = system: NCI-H522 lung
HOP-92 NSCLC = system: HOP-92 NSCLC

## CC(=O)ON(OCc1ccc2ccccc2c1)C(C)=O
HCT-116 colon
  GI50: > 100 µM
  TGI: > 100 µM
UACC-257 melanoma
  GI50: > 100 µM
  TGI: > 100 µM
ACHN renal
  GI50: > 100 µM
  TGI: > 100 µM
SF-295 CNS
  GI50: > 100 µM
  TGI: > 100 µM
MDA-MB-435
  GI50: > 100 µM
  TGI: > 100 µM
SF-268 CNS
  GI50: > 100 µM
  TGI: > 100 µM
OVCAR-4 ovarian
  GI50: > 100 µM
  TGI: > 100 µM
LOX IMVI melanoma
  GI50: 85.4 µM
  TGI: > 100 µM
MOLT-4 leukemia
  GI50: > 100 µM
  TGI: > 100 µM
NCI-H460 lung
  GI50: > 100 µM
  TGI: > 100 µM
SN12C renal
  GI50: > 100 µM
  TGI: > 100 µM
DU-145 prostate
  GI50: > 100 µM
  TGI: > 100 µM
TK-10 renal
  GI50: > 100 µM
  TGI: > 100 µM
COLO 205 colon
  GI50: > 100 µM
  TGI: > 100 µM
MALME-3M melanoma
  GI50: > 100 µM
  TGI: > 100 µM
HOP-62 NSCLC
  GI50: > 100 µM
  TGI: > 100 µM
SK-OV-3 ovarian
  GI50: > 100 µM
  TGI: > 100 µM
NCI-H226 lung
  GI50: > 100 µM
  TGI: > 100 µM
HCT-15 colon
  GI50: > 100 µM
  TGI: > 100 µM
MDA-MB-231 breast
  GI50: > 100 µM
  TGI: > 100 µM
CCRF-CEM leukemia
  GI50: > 100 µM
  TGI: > 100 µM
KM12 colon
  GI50: > 100 µM
  TGI: > 100 µM
SF-539 CNS
  GI50: > 100 µM
  TGI: > 100 µM
OVCAR-8 ovarian
  GI50: > 100 µM
  TGI: > 100 µM
CAKI-1 renal
  GI50: > 100 µM
  TGI: > 100 µM
EKVX NSCLC
  GI50: 32.3 µM
  TGI: > 100 µM
HCC-2998 colon
  GI50: > 100 µM
  TGI: > 100 µM
A498 renal
  GI50: > 100 µM
  TGI: > 100 µM
SK-MEL-2 melanoma
  GI50: > 100 µM
  TGI: > 100 µM
M14 melanoma
  GI50: > 100 µM
  TGI: > 100 µM
UO-31 renal
  GI50: 85 µM
  TGI: > 100 µM
IGROV1 ovarian
  GI50: > 100 µM
  TGI: > 100 µM
MCF7 breast
  GI50: 96.1 µM
  TGI: > 100 µM
HL-60(TB) leukemia
  GI50: > 100 µM
  TGI: > 100 µM
SR leukemia
  GI50: 86.5 µM
  TGI: > 100 µM
RXF 393 renal
  GI50: > 100 µM
  TGI: > 100 µM
HT29 colon
  GI50: > 100 µM
  TGI: > 100 µM
OVCAR-5 ovarian
  GI50: > 100 µM
  TGI: > 100 µM
NCI-H23 lung
  GI50: > 100 µM
  TGI: > 100 µM
SNB-75 CNS
  GI50: 96.6 µM
  TGI: > 100 µM
NCI/ADR-RES ovarian
  GI50: > 100 µM
  TGI: > 100 µM
RPMI-8226 leukemia
  GI50: > 100 µM
  TGI: > 100 µM
UACC-62 melanoma
  GI50: > 100 µM
  TGI: > 100 µM
K-562 leukemia
  GI50: > 100 µM
  TGI: > 100 µM
U251 CNS
  GI50: > 100 µM
  TGI: > 100 µM
SK-MEL-5 melanoma
  GI50: 94.7 µM
  TGI: > 100 µM
786-0 renal
  GI50: > 100 µM
  TGI: > 100 µM
OVCAR-3 ovarian
  GI50: > 100 µM
  TGI: > 100 µM
T-47D breast
  GI50: > 100 µM
  TGI: > 100 µM
PC-3 prostate
  GI50: > 100 µM
  TGI: > 100 µM
HS 578T breast
  GI50: 55.2 µM
  TGI: > 100 µM
BT-549 breast
  GI50: > 100 µM
  TGI: > 100 µM
SK-MEL-28 melanoma
  GI50: > 100 µM
  TGI: > 100 µM
SW-620 colon
  GI50: > 100 µM
  TGI: > 100 µM
SNB-19 CNS
  GI50: > 100 µM
  TGI: > 100 µM
A549 NSCLC
  GI50: > 100 µM
  TGI: > 100 µM
NCI-H522 lung
  GI50: > 100 µM
  TGI: > 100 µM
HOP-92 NSCLC
  GI50: 34.8 µM
  TGI: > 100 µM
